Patent US10844049B2, “GLP-1R agonists and uses thereof” (QILU REGOR THERAPEUTICS INC., priority 2018, dated 2020)

What was measured:
GLP1R [1] = biological target: T1, GLP1R (Homo sapiens, UniProt P43220); assay: GLP1R cAMP HTRF assay, HEK293/GLP-1R/CRE/Luc (HEK293T cells); assay type: cell-based; details: read-out: EC50
Method in brief: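 cAMP accumulation via HTRF after 30 min, 37 °C exposure of 1000 receptor-expressing cells/well to compound (0.5% DMSO final) in IBMX (500 μM)/0.1% BSA DPBS.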

GLP1R [2] = biological target: T1, GLP1R; assay: GLP1R cAMP assay, CHO cells stably expressing human GLP-1R; assay type: cell-based; details: CHO cells stably expressing GLP-1R, read-out: CHO cAMP stable EC50
Method: GLP-1R-mediated agonist activity was determined with a cell-based functional assay utilizing an HTRF (Homogeneous Time-Resolved Fluorescence) cAMP detection kit (cAMP Dynamic 2 Assay Kit; CisBio cat #62AM4PEC) that measures cAMP levels in the cell. The method is a competitive immunoassay between native cAMP produced by the cells and exogenous cAMP labeled with the dye d2. The tracer binding is visualized by a mAb anti-cAMP labeled with Cryptate. The specific signal (i.e., energy transfer) is inversely proportional to the concentration of cAMP in either standard or experimental sample.
Varying concentrations of each compound to be tested (in DMSO) were diluted in DMSO to obtain 200× compound working solution first and then 50 nl compounds were added to a white 384-well assay plate (Greiner 784075) with ECHO. The final DMSO concentration was 0.5%. The compound concentration range may be adjusted at any time.
Cells were removed from cryopreservation, re-suspended in 5 mL of Dulbecco's Phosphate Buffered Saline (DPBS-Sigma Cat # D8537) and centrifuged at 900 g for 5 min at 22° C. The cell pellet was then re-suspended in 1 mL of assay buffer [DPBS with 500 μM IBMX (Sigma #15879) and 0.1% BSA (Sigma # A1933). IBMX and BSA were freshly added on the day of assay]. A 10 μL sample of the cell suspension was counted on an Invitrogen Countess II to determine cell viability and cell count per mL. The remaining cell suspension was then adjusted with assay buffer to deliver 1000 viable cells per well using a Matrix Combi Multidrop reagent dispenser. 10 μL cell suspensions were added to each well of the assay plate which already contains compound. The plate was sealed and incubated at 37° C. with 5% CO2 for 30 minutes.
Following the 30 minute incubation, 5 μL of labeled d2 cAMP and 5 μL of anti-cAMP antibody (both diluted 1:20 in cell lysis buffer; as described in the manufacturer's assay protocol) were added to each well of the assay plate. The plates w ere then incubated at room temperature and after 60 minutes, changes in the HTRF signal were read with an Envision multi-label plate reader using excitation of 330 nm and emissions of 615 and 665 nm. Raw data were converted to nM cAMP by interpolation from a cAMP standard curve (as described in the manufacturer's assay protocol) and the percent effect was determined relative to a saturating concentration of the full agonist GLP-17-37 (10 nM) included on each plate. EC50 determinations were made from agonist dose-response curves analyzed with a curve fitting program using a 4-parameter logistic dose response equation. […]

T1 sequence (P43220 24-463): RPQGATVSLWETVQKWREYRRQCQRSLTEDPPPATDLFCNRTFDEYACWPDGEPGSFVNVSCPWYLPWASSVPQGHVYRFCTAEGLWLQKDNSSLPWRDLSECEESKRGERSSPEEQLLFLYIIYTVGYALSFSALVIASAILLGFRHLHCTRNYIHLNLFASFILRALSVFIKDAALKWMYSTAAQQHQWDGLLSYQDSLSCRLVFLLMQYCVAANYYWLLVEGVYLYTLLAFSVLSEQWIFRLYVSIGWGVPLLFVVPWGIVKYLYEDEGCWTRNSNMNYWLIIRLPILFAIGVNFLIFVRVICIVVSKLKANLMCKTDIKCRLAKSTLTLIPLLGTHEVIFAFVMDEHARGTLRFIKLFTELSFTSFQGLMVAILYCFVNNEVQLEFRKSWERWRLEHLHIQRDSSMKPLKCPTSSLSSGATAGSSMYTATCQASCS

## N#Cc1ccc(COc2cncc(C3=CCN(Cc4nc5ccc(C(=O)O)cc5n4C[C@@H]4CCO4)CC3)n2)c(F)c1 [Compound 23, (S)-2-((4-(6-(4-cyano-2-fluorobenzyloxy)pyrazin-2-yl)-5,6-dihydropyridin-1(2H)-yl)methyl)-1-(oxetan-2-ylmethyl)-1 h-benzo[d]imidazole-6-carboxylic acid]
GLP1R [1]
  EC50: ≤ 15 nM
GLP1R [2]
  EC50: ≤ 1000 nM

## N#Cc1ccc(COc2cccc(C3=CCN(Cc4nc5ccc(C(=O)O)nc5n4C[C@@H]4CCO4)CC3)n2)c(F)c1 [Compound 225, (S)-2-((6-((4-cyano-2-fluorobenzyl)oxy)-3′,6′-dihydro-[2,4′-bipyridin]-1′(2′H)-yl)methyl)-3-(oxetan-2-ylmethyl)-3H-imidazo[4,5-b]pyridine-5-carboxylic add]
GLP1R [1]
  EC50: ≤ 15 nM
GLP1R [2]
  EC50: ≤ 15 nM

## O=C(O)c1ccc2nc(CN3CC=C(c4ccnc(OCc5ccc(Cl)cc5F)n4)CC3)n(C[C@@H]3CCO3)c2c1 [Compound 35, (S)-2-((4-(2-((4-chloro-2-fluorobenzyl)oxy)pyrimidin-4-yl)-3,6-dihydropyridin-1(2H)-yl)methyl)-1-(oxetan-2-ylmethyl)-1H-benzo[d]imidazole-6-carboxylic add]
GLP1R [1]
  EC50: ≤ 15 nM
GLP1R [2]
  EC50: ≤ 150 nM

## O=C(O)c1ccc2nc(CN3CC=C(c4cncc(OCc5ccc(Cl)cc5F)n4)CC3)n(C[C@@H]3CCO3)c2c1 [Compound 34, (S)-2-((4-(6-(4-chloro-2-fluorobenzyloxy)pyrazin-2-yl)-5,6-dihydropyridin-1(2H)-yl)methyl)-1-(oxetan-2-ylmethyl)-1 h-benzo[d]imidazole-6-carboxylic acid]
GLP1R [1]
  EC50: ≤ 15 nM
GLP1R [2]
  EC50: ≤ 150 nM

## O=C(O)c1ccc2nc(CN3CC=C(c4cccc(OCc5ccc(Cl)cc5F)n4)CC3)n(C[C@@H]3CCO3)c2c1 [Compound 221, (S)-2-((6-((4-chloro-2-fluorobenzyl)oxy)-3′,6′-dihydro-[2,4′-bipyridin]-1′(2′H)-yl)methyl)-1-(oxetan-2-ylmethyl)-1H-benzo[d]imidazole-6-carboxylic acid]
GLP1R [1]
  EC50: ≤ 15 nM
GLP1R [2]
  EC50: ≤ 15 nM

## O=C(O)c1ccc2nc(CN3CC=C(c4ccc(F)c(OCc5ccc(Cl)cc5F)c4)CC3)n(C[C@@H]3CCO3)c2c1F [Compound 238, (S)-2-((4-(3-((4-chloro-2-fluorobenzyl)oxy)-4-fluorophenyl)-3,6-dihydropyridin-1(2H)-yl)methyl)-7-fluoro-1-(oxetan-2-ylmethyl)-1H-benzo[d]imidazole-6-carboxylic acid]
GLP1R [1]
  EC50: ≤ 15 nM
GLP1R [2]
  EC50: ≤ 150 nM

## O=C(O)c1ccc2nc(CN3CC=C(c4ccc(F)c(OCc5ccc(Cl)cc5F)c4)CC3)n(C[C@@H]3CCO3)c2c1 [Compound 29, (S)-2-((4-(3-((4-chloro-2-fluorobenzyl)oxy)-4-fluorophenyl)-3,6-dihydropyridin-1(2H)-yl)methyl)-1-(oxetan-2-ylmethyl)-1 h-benzo[d]imidazole-6-carboxylic acid]
GLP1R [1]
  EC50: ≤ 15 nM
GLP1R [2]
  EC50: ≤ 150 nM

## O=C(O)c1ccc2nc(CN3CC=C(c4cccc(OCc5ccc(Cl)cc5F)c4)CC3)n(C[C@@H]3CCO3)c2n1 [Compound 224, (S)-2-((4-(3-((4-chloro-2-fluorobenzyl)oxy)phenyl)-3,6-dihydropyridin-1(2H)-yl)methyl)-3-(oxetan-2-ylmethyl)-3H-imidazo[4,5-b]pyridine-5-carboxylic acid]
GLP1R [1]
  EC50: ≤ 15 nM
GLP1R [2]
  EC50: ≤ 150 nM

## O=C(O)c1ccc2nc(CN3CCC(c4cncc(OCc5ccc(Cl)cc5F)n4)CC3)n(C[C@@H]3CCO3)c2c1 [Compound 21, (S)-2-((4-(6-(4-chloro-2-fluorobenzyloxy)pyrazin-2-yl)piperidin-1-yl)methyl)-1-(oxetan-2-ylmethyl)-1 h-benzo[d]imidazole-6-carboxylic acid]
GLP1R [1]
  EC50: ≤ 15 nM
GLP1R [2]
  EC50: ≤ 1000 nM

## O=C(O)c1ccc2nc(CN3CCC(c4cccc(OCc5ccc(Cl)cc5F)c4)CC3)n(C[C@@H]3CCO3)c2c1 [Compound 239, (S)-2-((4-(3-((4-chloro-2-fluorobenzyl)oxy)phenyl)piperidin-1-yl)methyl)-1-(oxetan-2-ylmethyl)-1H-benzo[d]imidazole-6-carboxylic acid]
GLP1R [1]
  EC50: ≤ 15 nM
GLP1R [2]
  EC50: ≤ 150 nM

## O=C(O)c1ccc2nc(CN3CC=C(c4ccc(F)c(OCc5ccc(Cl)cc5F)c4)CC3)n(C[C@@H]3CCO3)c2n1 [Compound 236, (S)-2-((4-(3-((4-chloro-2-fluorobenzyl)oxy)-4-fluorophenyl)-5,6-dihydropyridin-1(2H)-yl)methyl)-3-(oxetan-2-ylmethyl)-3H-imidazo[4,5-b]pyridine-5-carboxylic acid]
GLP1R [1]
  EC50: ≤ 15 nM
GLP1R [2]
  EC50: ≤ 150 nM

## O=C(O)c1ccc2nc(CN3CC=C(c4cccc(OCc5ccc(-c6cccnc6)cc5)n4)CC3)n(C[C@@H]3CCO3)c2c1 [Compound 242, (S)-1-(oxetan-2-ylmethyl)-2-((6-((4-(pyridin-3-yl)benzyl)oxy)-3′,6′-dihydro-[2,4′-bipyridin]-1′(2′H)-yl)methyl)-1H-benzo[d]imidazole-6-carboxylic add]
GLP1R [1]
  EC50: ≤ 15 nM

## N#Cc1ccc(COc2nc(C3=CCN(Cc4nc5ccc(C(=O)O)cc5n4C[C@@H]4CCO4)CC3)ccc2F)c(F)c1 [Compound 222, (S)-2-((6-((4-cyano-2-fluorobenzyl)oxy)-5-fluoro-3′,6′-dihydro-[2,4′-bipyridin]-1′(2′H)-yl)methyl)-1-(oxetan-2-ylmethyl)-1H-benzo[d]imidazole-6-carboxylic acid]
GLP1R [1]
  EC50: ≤ 15 nM
GLP1R [2]
  EC50: ≤ 15 nM

## N#Cc1ccc(COc2cncc(C3CCN(Cc4nc5ccc(C(=O)O)cc5n4C[C@@H]4CCO4)CC3)n2)c(F)c1 [Compound 22, (S)-2-((4-(6-(4-cyano-2-fluorobenzyloxy)pyrazin-2-yl)piperidin-1-yl)methyl)-1-(oxetan-2-ylmethyl)-1 h-benzo[d]imidazole-6-carboxylic acid]
GLP1R [1]
  EC50: ≤ 150 nM
GLP1R [2]
  EC50: ≤ 1000 nM

## O=C(O)c1ccc2nc(CN3CC=C(c4cccc(OCc5ccc(Cl)cc5F)c4)CC3)n(C[C@@H]3CCO3)c2c1F [Compound 237, (S)-2-((4-(3-((4-chloro-2-fluorobenzyl)oxy)phenyl)-3,6-dihydropyridin-1(2H)-yl)methyl)-7-fluoro-1-(oxetan-2-ylmethyl)-1H-benzo[d]imidazole-6-carboxylic acid]
GLP1R [1]
  EC50: ≤ 15 nM
GLP1R [2]
  EC50: ≤ 150 nM

## N#Cc1ccc(COc2cccc(C3=CCN(Cc4nc5ccc(C(=O)O)cc5n4C[C@@H]4CCO4)CC3)n2)c(F)c1 [Compound 19, (S)-2-((4-(6-(4-cyano-2-fluorobenzyloxy)pyridin-2-yl)-5,6-dihydropyridin-1(2H)-yl)methyl)-1-(oxetan-2-ylmethyl)-1 h-benzo[d]imidazole-6-carboxylic add]
GLP1R [1]
  EC50: ≤ 15 nM
GLP1R [2]
  EC50: ≤ 15 nM

## O=C(O)c1ccc2nc(CN3CC=C(c4cccc(OCc5ccc(Cl)cc5F)c4)CC3)n(C[C@@H]3CCO3)c2c1 [Compound 28, (S)-2-((4-(3-((4-chloro-2-fluorobenzyl)oxy)phenyl)-3,6-dihydropyridin-1(2H)-yl)methyl)-1-(oxetan-2-ylmethyl)-1 h-benzo[d]imidazole-6-carboxylic add]
GLP1R [1]
  EC50: ≤ 15 nM
GLP1R [2]
  EC50: ≤ 150 nM

## O=C(O)c1ccc2nc(CN3CCC(c4ccnc(OCc5ccc(Cl)cc5F)n4)CC3)n(C[C@@H]3CCO3)c2c1 [Compound 18, (S)-2-((4-(2-((4-chloro-2-fluorobenzyl)oxy)pyrimidin-4-yl)piperidin-1-yl)methyl)-1-(oxetan-2-ylmethyl)-1H-benzo[d]imidazole-6-carboxylic acid]
GLP1R [1]
  EC50: ≤ 15 nM
GLP1R [2]
  EC50: ≤ 150 nM

## O=C(O)c1ccc2nc(CN3CC=C(c4cccc(OCc5ccc(-n6ccnc6)cc5)n4)CC3)n(C[C@@H]3CCO3)c2n1 [Compound 245, (S)-2-((4-(6-(4-(1H-imidazol-1-yl)benzyloxy)pyridin-2-yl)-5,6-dihydropyridin-1(2H)-yl)methyl)-3-(oxetan-2-ylmethyl)-3H-imidazo[4,5-b]pyridine-5-carboxylic add]
GLP1R [1]
  EC50: ≤ 15 nM
GLP1R [2]
  EC50: ≤ 15 nM
